According to paper PMC4032265 (PLoS ONE, 2014):
Like-named read-outs stand apart in the source and are kept apart here.

Experiments:
[1] = biological target: M3 muscarinic acetylcholine receptor (Homo sapiens, UniProt P20309); test: PDSP radioligand binding, M3; settings: read-out: % inhibition at 10 µM
hERG potassium channel = hERG potassium channel (Homo sapiens, UniProt Q12809); test: PDSP hERG functional assay; format: cell-based; settings: for inhibition at 10 µM: human; for Ki: not binding
hERG potassium channel, sequence (Q12809 whole entry): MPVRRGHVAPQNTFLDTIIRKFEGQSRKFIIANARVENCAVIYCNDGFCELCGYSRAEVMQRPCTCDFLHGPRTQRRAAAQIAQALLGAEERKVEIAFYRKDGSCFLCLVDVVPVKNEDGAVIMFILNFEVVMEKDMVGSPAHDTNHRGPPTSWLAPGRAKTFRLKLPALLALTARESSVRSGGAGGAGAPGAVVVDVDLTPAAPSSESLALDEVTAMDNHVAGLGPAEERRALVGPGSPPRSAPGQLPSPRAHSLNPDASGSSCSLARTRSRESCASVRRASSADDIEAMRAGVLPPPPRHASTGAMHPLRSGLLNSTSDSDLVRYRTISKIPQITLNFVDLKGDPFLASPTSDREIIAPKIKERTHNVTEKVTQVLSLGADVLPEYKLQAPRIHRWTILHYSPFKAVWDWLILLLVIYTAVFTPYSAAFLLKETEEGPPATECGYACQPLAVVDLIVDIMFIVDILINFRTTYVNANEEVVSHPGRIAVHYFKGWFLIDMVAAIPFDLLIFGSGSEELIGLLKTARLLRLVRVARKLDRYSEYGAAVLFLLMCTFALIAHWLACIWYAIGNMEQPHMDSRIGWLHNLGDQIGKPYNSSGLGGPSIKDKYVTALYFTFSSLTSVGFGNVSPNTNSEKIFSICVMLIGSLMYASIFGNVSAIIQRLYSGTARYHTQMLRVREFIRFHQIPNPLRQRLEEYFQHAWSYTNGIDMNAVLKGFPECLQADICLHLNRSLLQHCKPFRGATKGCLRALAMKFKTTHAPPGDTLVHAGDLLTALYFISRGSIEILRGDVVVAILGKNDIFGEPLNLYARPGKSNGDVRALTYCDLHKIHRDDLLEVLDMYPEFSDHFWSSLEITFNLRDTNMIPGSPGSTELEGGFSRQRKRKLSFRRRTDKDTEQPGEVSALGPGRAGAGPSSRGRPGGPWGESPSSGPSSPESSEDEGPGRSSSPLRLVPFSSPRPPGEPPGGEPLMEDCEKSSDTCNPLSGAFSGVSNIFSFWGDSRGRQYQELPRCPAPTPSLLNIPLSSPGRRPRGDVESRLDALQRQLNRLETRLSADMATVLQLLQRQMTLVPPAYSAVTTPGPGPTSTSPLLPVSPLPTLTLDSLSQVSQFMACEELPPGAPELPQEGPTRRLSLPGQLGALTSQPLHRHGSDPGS

GABAA receptor = test: PDSP radioligand binding, GABAA; settings: single concentration 10 µM
[2] = biological target: 5HT7 serotonergic receptor (Homo sapiens, UniProt P34969); test: PDSP radioligand binding, 5HT7; settings: read-out: % inhibition at 10 µM
5HT7 serotonergic receptor, sequence (P34969 whole entry): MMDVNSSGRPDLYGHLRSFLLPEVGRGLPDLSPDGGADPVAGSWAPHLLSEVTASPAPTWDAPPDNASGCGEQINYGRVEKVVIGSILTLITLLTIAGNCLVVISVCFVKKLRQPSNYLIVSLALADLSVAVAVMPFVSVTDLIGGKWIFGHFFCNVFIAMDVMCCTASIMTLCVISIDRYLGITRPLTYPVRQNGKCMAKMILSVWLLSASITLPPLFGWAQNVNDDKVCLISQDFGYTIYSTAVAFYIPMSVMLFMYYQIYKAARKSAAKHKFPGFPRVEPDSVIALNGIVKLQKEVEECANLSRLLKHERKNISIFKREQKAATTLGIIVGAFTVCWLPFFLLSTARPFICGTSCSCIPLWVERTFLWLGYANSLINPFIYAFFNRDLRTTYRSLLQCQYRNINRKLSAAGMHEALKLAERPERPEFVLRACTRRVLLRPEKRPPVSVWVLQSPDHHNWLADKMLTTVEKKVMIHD

[3] = biological target: 5HT5A serotonergic receptor (Homo sapiens, UniProt P47898); test: PDSP radioligand binding, 5HT5A; settings: for inhibition at 10 µM: read-out: % inhibition at 10 µM
5HT5A serotonergic receptor, sequence (P47898 whole entry): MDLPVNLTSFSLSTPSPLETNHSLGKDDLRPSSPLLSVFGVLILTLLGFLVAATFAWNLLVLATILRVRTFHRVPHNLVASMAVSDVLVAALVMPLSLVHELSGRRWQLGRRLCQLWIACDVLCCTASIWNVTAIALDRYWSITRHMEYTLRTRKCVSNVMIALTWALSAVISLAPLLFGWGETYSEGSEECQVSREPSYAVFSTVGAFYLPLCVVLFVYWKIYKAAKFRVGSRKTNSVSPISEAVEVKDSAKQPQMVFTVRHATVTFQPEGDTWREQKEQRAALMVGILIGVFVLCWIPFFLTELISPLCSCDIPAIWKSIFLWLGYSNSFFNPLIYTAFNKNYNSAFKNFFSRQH

[4] = biological target: T1, 5HT1A serotonergic receptor (Homo sapiens, UniProt P08908); test: PDSP radioligand binding, 5HT1A; settings: for inhibition at 10 µM: read-out: % inhibition at 10 µM
T1 sequence (P08908 1-422): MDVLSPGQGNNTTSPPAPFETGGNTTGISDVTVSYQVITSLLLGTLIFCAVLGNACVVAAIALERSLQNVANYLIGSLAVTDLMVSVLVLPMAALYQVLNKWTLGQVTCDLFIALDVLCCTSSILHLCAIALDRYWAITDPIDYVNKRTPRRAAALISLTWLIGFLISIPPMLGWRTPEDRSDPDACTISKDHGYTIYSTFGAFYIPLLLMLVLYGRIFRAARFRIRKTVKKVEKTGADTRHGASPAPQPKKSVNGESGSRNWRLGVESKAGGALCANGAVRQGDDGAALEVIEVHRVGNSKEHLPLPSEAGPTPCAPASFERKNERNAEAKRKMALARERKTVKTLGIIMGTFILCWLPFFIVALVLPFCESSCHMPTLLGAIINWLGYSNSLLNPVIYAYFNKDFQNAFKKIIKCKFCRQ

[5] = biological target: 5HT2A serotonergic receptor (Homo sapiens, UniProt P28223); test: PDSP radioligand binding, 5HT2A; settings: read-out: % inhibition at 10 µM
κ opioid receptor = κ opioid receptor (Homo sapiens, UniProt P41145); test: PDSP radioligand binding, κ opioid; settings: read-out: % inhibition at 10 µM
κ opioid receptor, sequence (P41145 whole entry): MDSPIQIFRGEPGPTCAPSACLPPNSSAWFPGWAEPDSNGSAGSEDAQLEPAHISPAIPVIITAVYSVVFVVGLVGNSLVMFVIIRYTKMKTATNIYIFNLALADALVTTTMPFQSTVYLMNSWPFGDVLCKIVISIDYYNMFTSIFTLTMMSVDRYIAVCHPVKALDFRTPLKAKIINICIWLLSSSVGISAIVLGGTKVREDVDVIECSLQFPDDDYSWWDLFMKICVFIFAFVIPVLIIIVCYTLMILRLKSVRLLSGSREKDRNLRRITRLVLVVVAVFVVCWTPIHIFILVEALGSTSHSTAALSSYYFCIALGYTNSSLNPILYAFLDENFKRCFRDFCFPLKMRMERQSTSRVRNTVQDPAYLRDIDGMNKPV

µ opioid receptor = µ opioid receptor (Homo sapiens, UniProt P35372); test: PDSP radioligand binding, µ opioid; settings: read-out: % inhibition at 10 µM
µ opioid receptor, sequence (P35372 whole entry): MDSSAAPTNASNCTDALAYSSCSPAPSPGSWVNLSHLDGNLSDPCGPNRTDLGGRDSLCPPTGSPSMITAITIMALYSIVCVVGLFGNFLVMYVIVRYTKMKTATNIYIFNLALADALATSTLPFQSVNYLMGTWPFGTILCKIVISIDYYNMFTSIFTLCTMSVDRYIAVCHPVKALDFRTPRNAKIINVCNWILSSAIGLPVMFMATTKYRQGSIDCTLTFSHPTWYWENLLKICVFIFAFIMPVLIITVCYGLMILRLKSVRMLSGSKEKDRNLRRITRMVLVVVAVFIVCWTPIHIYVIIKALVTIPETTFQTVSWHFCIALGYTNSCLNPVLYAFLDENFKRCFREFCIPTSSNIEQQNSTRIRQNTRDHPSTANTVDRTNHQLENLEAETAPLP

σ2 receptor = biological target: T2, σ2 receptor (Rattus norvegicus, UniProt Q5U3Y7); test: PDSP radioligand binding, σ2; settings: for inhibition at 10 µM: read-out: % inhibition at 10 µM
T2 sequence (Q5U3Y7 1-176): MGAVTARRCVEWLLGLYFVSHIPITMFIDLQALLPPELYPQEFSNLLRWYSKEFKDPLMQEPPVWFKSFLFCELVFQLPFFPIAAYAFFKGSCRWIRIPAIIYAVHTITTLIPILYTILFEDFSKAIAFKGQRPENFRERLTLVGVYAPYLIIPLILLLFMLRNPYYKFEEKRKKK

5HT3 ion channels = biological target: T3, 5HT3 ion channels (Homo sapiens, UniProt P46098); test: PDSP radioligand binding, 5HT3 ion channel; settings: read-out: % inhibition at 10 µM
T3 sequence (P46098 24-478): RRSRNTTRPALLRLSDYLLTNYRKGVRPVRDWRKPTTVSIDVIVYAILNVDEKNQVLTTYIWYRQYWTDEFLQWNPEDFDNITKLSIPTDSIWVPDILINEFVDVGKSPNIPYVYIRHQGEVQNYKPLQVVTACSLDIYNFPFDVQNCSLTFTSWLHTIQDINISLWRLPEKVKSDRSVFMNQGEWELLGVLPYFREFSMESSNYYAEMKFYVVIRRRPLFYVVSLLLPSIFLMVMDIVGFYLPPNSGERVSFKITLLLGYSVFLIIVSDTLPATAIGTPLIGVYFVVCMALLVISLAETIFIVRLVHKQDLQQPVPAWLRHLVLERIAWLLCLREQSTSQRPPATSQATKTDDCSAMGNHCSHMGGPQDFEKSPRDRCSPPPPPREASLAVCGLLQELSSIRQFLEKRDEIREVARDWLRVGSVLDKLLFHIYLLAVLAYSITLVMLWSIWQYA

[6] = biological target: H3 histaminergic receptor (Homo sapiens, UniProt Q9Y5N1); test: PDSP radioligand binding, H3; settings: read-out: % inhibition at 10 µM
H3 histaminergic receptor, sequence (Q9Y5N1 whole entry): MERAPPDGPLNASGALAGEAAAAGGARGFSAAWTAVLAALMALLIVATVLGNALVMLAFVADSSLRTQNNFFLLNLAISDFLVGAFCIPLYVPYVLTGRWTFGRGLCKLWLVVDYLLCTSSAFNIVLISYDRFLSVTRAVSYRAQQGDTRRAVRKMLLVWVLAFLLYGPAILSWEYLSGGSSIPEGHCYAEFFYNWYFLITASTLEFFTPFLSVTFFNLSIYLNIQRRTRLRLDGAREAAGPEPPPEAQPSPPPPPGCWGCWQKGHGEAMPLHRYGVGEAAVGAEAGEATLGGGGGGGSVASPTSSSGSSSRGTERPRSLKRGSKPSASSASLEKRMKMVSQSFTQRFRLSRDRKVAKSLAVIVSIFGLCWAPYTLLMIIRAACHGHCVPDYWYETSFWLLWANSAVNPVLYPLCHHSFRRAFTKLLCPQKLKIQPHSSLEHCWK

[7] = biological target: H4 histaminergic receptor (Homo sapiens, UniProt Q9H3N8); test: PDSP radioligand binding, H4; settings: read-out: % inhibition at 10 µM
[8] = biological target: T4, M4 muscarinic acetylcholine receptor (Homo sapiens, UniProt P08173); test: PDSP radioligand binding, M4; settings: read-out: % inhibition at 10 µM
T4 sequence (P08173 1-479): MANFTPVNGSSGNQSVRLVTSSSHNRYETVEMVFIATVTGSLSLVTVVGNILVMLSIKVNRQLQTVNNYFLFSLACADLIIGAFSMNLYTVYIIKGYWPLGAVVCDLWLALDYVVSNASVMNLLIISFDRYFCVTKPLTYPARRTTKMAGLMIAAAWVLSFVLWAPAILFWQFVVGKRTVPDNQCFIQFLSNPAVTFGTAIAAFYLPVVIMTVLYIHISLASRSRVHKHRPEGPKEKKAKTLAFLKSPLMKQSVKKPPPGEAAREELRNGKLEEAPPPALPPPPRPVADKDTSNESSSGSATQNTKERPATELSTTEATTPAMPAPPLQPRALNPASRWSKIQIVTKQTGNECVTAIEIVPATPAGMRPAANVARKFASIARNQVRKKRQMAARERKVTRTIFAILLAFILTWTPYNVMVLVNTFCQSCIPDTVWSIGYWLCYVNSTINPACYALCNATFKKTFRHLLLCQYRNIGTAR

[9] = biological target: 5HT1D serotonergic receptor (Homo sapiens, UniProt P28221); test: PDSP radioligand binding, 5HT1D; settings: read-out: % inhibition at 10 µM
5HT1D serotonergic receptor, sequence (P28221 whole entry): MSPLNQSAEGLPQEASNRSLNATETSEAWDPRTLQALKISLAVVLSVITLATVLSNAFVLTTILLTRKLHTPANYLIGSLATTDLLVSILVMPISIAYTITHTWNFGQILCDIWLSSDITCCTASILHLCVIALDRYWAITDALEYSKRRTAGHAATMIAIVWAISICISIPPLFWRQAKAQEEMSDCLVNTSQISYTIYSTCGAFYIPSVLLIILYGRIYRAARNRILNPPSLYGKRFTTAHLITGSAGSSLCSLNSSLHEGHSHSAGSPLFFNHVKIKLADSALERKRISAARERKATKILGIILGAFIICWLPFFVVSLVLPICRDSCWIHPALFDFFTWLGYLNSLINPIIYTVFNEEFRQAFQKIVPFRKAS

D3 dopaminergic receptor = D3 dopaminergic receptor (Homo sapiens, UniProt P35462); test: PDSP radioligand binding, D3; settings: read-out: % inhibition at 10 µM
D3 dopaminergic receptor, sequence (P35462 whole entry): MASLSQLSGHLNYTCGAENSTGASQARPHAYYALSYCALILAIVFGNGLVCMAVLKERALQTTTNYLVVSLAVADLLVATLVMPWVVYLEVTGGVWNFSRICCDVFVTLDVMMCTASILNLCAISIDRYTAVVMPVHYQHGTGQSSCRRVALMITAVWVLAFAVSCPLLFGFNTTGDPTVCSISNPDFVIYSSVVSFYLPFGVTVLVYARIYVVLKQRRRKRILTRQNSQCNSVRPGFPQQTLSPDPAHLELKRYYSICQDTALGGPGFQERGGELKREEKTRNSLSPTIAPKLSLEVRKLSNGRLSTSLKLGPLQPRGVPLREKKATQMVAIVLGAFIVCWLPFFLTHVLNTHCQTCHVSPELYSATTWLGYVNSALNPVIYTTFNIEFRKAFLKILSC

β3 adrenergic receptor = β3 adrenergic receptor (Homo sapiens, UniProt P13945); test: PDSP radioligand binding, β3; settings: for Ki: full concentration-response curves, n = 3-6 unless noted; for inhibition at 10 µM: read-out: % inhibition at 10 µM
β3 adrenergic receptor, sequence (P13945 whole entry): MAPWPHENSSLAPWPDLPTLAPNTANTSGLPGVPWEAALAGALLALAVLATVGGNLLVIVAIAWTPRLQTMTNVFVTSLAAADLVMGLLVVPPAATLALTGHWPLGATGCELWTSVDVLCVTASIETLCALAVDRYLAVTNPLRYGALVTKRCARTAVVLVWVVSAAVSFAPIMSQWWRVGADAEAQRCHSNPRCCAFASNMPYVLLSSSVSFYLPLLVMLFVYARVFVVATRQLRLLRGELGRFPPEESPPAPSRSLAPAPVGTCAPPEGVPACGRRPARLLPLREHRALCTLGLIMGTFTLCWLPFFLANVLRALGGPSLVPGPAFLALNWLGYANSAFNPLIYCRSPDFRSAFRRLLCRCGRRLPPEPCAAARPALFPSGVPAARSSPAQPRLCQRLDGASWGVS

M3 muscarinic acetylcholine receptor, sequence (P20309 whole entry): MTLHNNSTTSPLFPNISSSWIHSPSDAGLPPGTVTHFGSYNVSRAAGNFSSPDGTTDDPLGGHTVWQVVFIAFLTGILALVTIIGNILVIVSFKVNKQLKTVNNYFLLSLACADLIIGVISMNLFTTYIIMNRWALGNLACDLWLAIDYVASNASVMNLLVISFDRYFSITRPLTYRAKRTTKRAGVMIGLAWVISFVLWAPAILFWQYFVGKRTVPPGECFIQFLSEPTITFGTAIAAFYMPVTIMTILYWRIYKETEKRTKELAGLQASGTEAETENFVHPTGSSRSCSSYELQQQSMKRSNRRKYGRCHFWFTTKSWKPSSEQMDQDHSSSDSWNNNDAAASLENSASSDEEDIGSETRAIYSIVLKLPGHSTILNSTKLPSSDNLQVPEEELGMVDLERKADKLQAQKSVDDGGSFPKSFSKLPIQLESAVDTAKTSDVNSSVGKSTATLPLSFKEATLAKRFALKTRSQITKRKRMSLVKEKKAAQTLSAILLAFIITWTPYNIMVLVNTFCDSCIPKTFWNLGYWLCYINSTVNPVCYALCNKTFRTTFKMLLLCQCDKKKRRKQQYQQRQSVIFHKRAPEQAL

Q: How did the inhibition at 10 µM [1] turn out when `CNC(=O)[C@@]12C[C@@H]1[C@@H](n1cnc3c(NCc4cccc(Cl)c4)nc(C#Cc4ccc(F)c(F)c4)nc31)[C@H](O)[C@@H]2O` [Compound 1] was run?
A: The inhibition at 10 µM was 2%.

Q: And the inhibition at 10 µM (hERG potassium channel; single point 10 µM)?
A: The inhibition at 10 µM was 43 ± 1.9%.

Q: And the Ki (hERG potassium channel)?
A: Its Ki is 12.2 µM.

Q: What about the “% inhibition at 10 µM” value (GABAA receptor) of the same molecule?
A: Its value is 0%.

Q: And the inhibition at 10 µM [2]?
A: The inhibition at 10 µM was 5%.

Q: And the inhibition at 10 µM [3]?
A: Its inhibition at 10 µM is 3%.

Q: And the Ki [4]?
A: Its Ki is 7.62 µM.

Q: And the inhibition at 10 µM [4]?
A: The inhibition at 10 µM was 26%.

Q: And the inhibition at 10 µM ([5]; single concentration 10 µM)?
A: The inhibition at 10 µM was 5%.

Q: What about the inhibition at 10 µM (κ opioid receptor) of the same molecule?
A: Its inhibition at 10 µM is 71%.

Q: And the inhibition at 10 µM (µ opioid receptor)?
A: The inhibition at 10 µM was 11%.

Q: What about the Ki (σ2 receptor; full curves, n = 2) of the same molecule?
A: The Ki was 0.908 ± 0.294 µM.

Q: And the inhibition at 10 µM (σ2 receptor)?
A: Its inhibition at 10 µM is 0%.

Q: What about the inhibition at 10 µM (5HT3 ion channels) of the same molecule?
A: Its inhibition at 10 µM is 3%.

Q: What about the inhibition at 10 µM [6] of the same molecule?
A: The inhibition at 10 µM was 8%.

Q: What about the inhibition at 10 µM [7] of the same molecule?
A: The inhibition at 10 µM was 17%.

Q: And the inhibition at 10 µM [8]?
A: The inhibition at 10 µM was 20%.

Q: What about the inhibition at 10 µM [9] of the same molecule?
A: The inhibition at 10 µM was 0%.

Q: What about the inhibition at 10 µM (D3 dopaminergic receptor) of the same molecule?
A: The inhibition at 10 µM was 2%.

Q: What about the Ki (β3 adrenergic receptor) of the same molecule?
A: Its Ki is 1.45 ± 0.51 µM.

Q: And the inhibition at 10 µM (β3 adrenergic receptor)?
A: Its inhibition at 10 µM is 74%.

Q: What does the source list for `CNC(=O)[C@@]12C[C@@H]1[C@@H](n1cnc3c(NCc4cccc(Cl)c4)nc(C#Cc4ccc(F)cc4)nc31)[C@H](O)[C@@H]2O` [Compound 2]?
A: inhibition at 10 µM ([1]; single concentration 10 µM): 6%; inhibition at 10 µM (hERG potassium channel; single point 10 µM): 5.8 ± 11.9%; Ki (hERG potassium channel): 39.5 µM; % inhibition at 10 µM (GABAA receptor): 0%; inhibition at 10 µM ([2]; single concentration 10 µM): 6%; inhibition at 10 µM ([3]; single concentration 10 µM): 25%; inhibition at 10 µM ([4]; single concentration 10 µM): 5%; inhibition at 10 µM ([5]; single concentration 10 µM): 19%; inhibition at 10 µM (κ opioid receptor; single concentration 10 µM): 20%; inhibition at 10 µM (µ opioid receptor; single concentration 10 µM): 7%; inhibition at 10 µM (σ2 receptor; single concentration 10 µM): 30%; inhibition at 10 µM (5HT3 ion channels; single concentration 10 µM): 26%; inhibition at 10 µM ([6]; single concentration 10 µM): 0%; inhibition at 10 µM ([7]; single concentration 10 µM): 28%; inhibition at 10 µM ([8]; single concentration 10 µM): 8%; inhibition at 10 µM ([9]; single concentration 10 µM): 21%; inhibition at 10 µM (D3 dopaminergic receptor; single concentration 10 µM): 4%; Ki (β3 adrenergic receptor): 1.56 ± 0.56 µM; inhibition at 10 µM (β3 adrenergic receptor; single concentration 10 µM): 67%

Q: What does the source list for `CNC(=O)[C@@]12C[C@@H]1[C@@H](n1cnc3c(NCc4cccc(Cl)c4)nc(C#Cc4ccccc4Cl)nc31)[C@H](O)[C@@H]2O` [Compound 3]?
A: inhibition at 10 µM ([1]; single concentration 10 µM): 5%; inhibition at 10 µM (hERG potassium channel; single point 10 µM): 10.3 ± 4.9%; Ki (hERG potassium channel): 39.2 µM; % inhibition at 10 µM (GABAA receptor): 0%; inhibition at 10 µM ([2]; single concentration 10 µM): 8%; Ki [3]: 6.3 µM; inhibition at 10 µM ([3]; single concentration 10 µM): 29%; inhibition at 10 µM ([4]; single concentration 10 µM): 6%; inhibition at 10 µM ([5]; single concentration 10 µM): 26%; inhibition at 10 µM (κ opioid receptor; single concentration 10 µM): 19%; inhibition at 10 µM (µ opioid receptor; single concentration 10 µM): 23%; inhibition at 10 µM (σ2 receptor; single concentration 10 µM): 42%; inhibition at 10 µM (5HT3 ion channels; single concentration 10 µM): 50%; inhibition at 10 µM ([6]; single concentration 10 µM): 0%; inhibition at 10 µM ([7]; single concentration 10 µM): 9%; inhibition at 10 µM ([8]; single concentration 10 µM): 8%; inhibition at 10 µM ([9]; single concentration 10 µM): 10%; inhibition at 10 µM (D3 dopaminergic receptor; single concentration 10 µM): 7%; Ki (β3 adrenergic receptor): 1.17 ± 0.19 µM; inhibition at 10 µM (β3 adrenergic receptor; single concentration 10 µM): 57%

Q: Which inhibition at 10 µM ([1]; single concentration 10 µM) does the source give for `O[C@@H]1[C@H](O)[C@@H]2C[C@@H]2[C@H]1n1cnc2c(NC(C3CC3)C3CC3)nc(Cl)nc21` [Compound 10] here?
A: The inhibition at 10 µM was 0%.

Q: What about the “% inhibition at 10 µM (hERG functional assay)” value (hERG potassium channel; single point 10 µM) of the same molecule?
A: Its value is 4.5 ± 2.4%.

Q: What about the “% inhibition at 10 µM” value (GABAA receptor) of the same molecule?
A: Its value is 11%.

Q: And the inhibition at 10 µM ([2]; single concentration 10 µM)?
A: The inhibition at 10 µM was 0%.

Q: What about the inhibition at 10 µM ([3]; single concentration 10 µM) of the same molecule?
A: The inhibition at 10 µM was 0%.

Q: And the inhibition at 10 µM ([4]; single concentration 10 µM)?
A: The inhibition at 10 µM was 4%.

Q: What about the inhibition at 10 µM [5] of the same molecule?
A: Its inhibition at 10 µM is 0%.

Q: And the inhibition at 10 µM (κ opioid receptor)?
A: Its inhibition at 10 µM is 0%.

Q: And the inhibition at 10 µM (µ opioid receptor; single concentration 10 µM)?
A: Its inhibition at 10 µM is 0%.

Q: What about the inhibition at 10 µM (σ2 receptor; single concentration 10 µM) of the same molecule?
A: The inhibition at 10 µM was 0%.

Q: What about the inhibition at 10 µM (5HT3 ion channels; single concentration 10 µM) of the same molecule?
A: Its inhibition at 10 µM is 3%.

Q: And the inhibition at 10 µM ([6]; single concentration 10 µM)?
A: Its inhibition at 10 µM is 8%.

Q: And the inhibition at 10 µM ([7]; single concentration 10 µM)?
A: Its inhibition at 10 µM is 6%.

Q: What about the inhibition at 10 µM ([8]; single concentration 10 µM) of the same molecule?
A: Its inhibition at 10 µM is 7%.

Q: What about the inhibition at 10 µM ([9]; single concentration 10 µM) of the same molecule?
A: Its inhibition at 10 µM is 18%.

Q: What about the inhibition at 10 µM (D3 dopaminergic receptor; single concentration 10 µM) of the same molecule?
A: Its inhibition at 10 µM is 8%.

Q: And the inhibition at 10 µM (β3 adrenergic receptor; single concentration 10 µM)?
A: The inhibition at 10 µM was 0%.
